IC50 data for 23 compounds are collected here from patent US20230031406A1, “COMPOUNDS AND COMPOSITIONS FOR TREATING CONDITIONS ASSOCIATED WITH NLRP ACTIVITY” (Novartis AG, priority 2018, published 2023).

The assay concerns PMA-differentiated THP-1 cells. Put plainly: IL-1β production in PMA-differentiated THP-1 cells stimulated with gramicidin (hTHP-1 assay containing 2% fetal bovine serum; Procedures 1 and 2). The format is cell-based, human. Particulars: 2% fetal bovine serum. In outline:
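PMA-primed (20 ng/ml, 16-18 h) THP-1 cells in RPMI with 2% FBS, 50,000 cells/well, were preincubated 1 h with compound (0.0017-100 μM final, 0.37% DMSO), then stimulated 2 h with 5 μM gramicidin. Supernatant IL-1β measured by HTRF.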

The mark [1] stands for this setting: Table B1, class symbols, read-out: Average IC50 of compounds in hTHP-1 assay: hTHP-1 IC50.
The mark [2] stands for this setting: Homo sapiens, THP-1, Table B1, class symbols, read-out: Average IC50 of compounds in hTHP-1 assay: hTHP-1 IC50.
Setting [3] is: Table B2, class symbols, read-out: hTHP-1 IC50.
Setting [4] is: Homo sapiens, THP-1, Table B3, hTHP-1 assay, class symbols, read-out: IC50.
[5] abbreviates: Homo sapiens, THP-1, Table B2, numeric bounds, read-out: hTHP-1 IC50.
Where [6] appears, read: Homo sapiens, THP-1, Table B2, class symbols, read-out: hTHP-1 IC50.
The mark [7] stands for this setting: Homo sapiens, THP-1, Table B1, numeric bounds, read-out: Average IC50 of compounds in hTHP-1 assay: hTHP-1 IC50.

Molecules are shown by their SMILES. Read-outs that look alike come from different tables or passages of the source.

Broadly, the IC50 is the midpoint of a concentration-inhibition curve. With `CC(C)c1c(-c2ccccc2)nc2c(c1NC(=O)N=S(N)(=O)c1cnc(C(C)(C)O)s1)CCC2` (single isomer, unassigned) [Compound 145b, (S) or (R)-2-(2-hydroxy-propan-2-yl)-N′-((3-isopropyl-2-phenyl-6,7-dihydro-5H-cyclopenta[b]pyridin-4-yl)carbamoyl)thiazole-5-sulfonimidamide], the IC50 under setting [1] was in the range of 1 to 5 µM.
Regarding `COCc1nc(C(C)(C)O)sc1S(N)(=O)=NC(=O)Nc1c2c(nc3c1CCC3(C)C)CCC2` (centres unmarked) [Compound 170, N′-((3,3-dimethyl-1,2,3,5,6,7-hexahydrodicyclopenta[b,e]pyridin-8-yl)carbamoyl)-2-(2-hydroxypropan-2-yl)-4-(methoxymethyl)thiazole-5-sulfonimidamide], the IC50 under setting [2] is 1 to 5 µM.
Take `CCn1cc(F)c(S(N)(=O)=NC(=O)Nc2c(C)c(C3CC3)nc3c2CCC3)n1` (single isomer, unassigned) [Example 713, (R) or (S)-N′-((2-cyclopropyl-3-methyl-6,7-dihydro-5H-cyclopenta[b]pyridin-4-yl)carbamoyl)-1-ethyl-4-fluoro-1H-pyrazole-3-sulfonimidamide]: for the setting “Table B3, hTHP-1 assay, class symbols, read-out: IC50”, the 50% inhibitory concentration (IC50) was 0.04 to 0.2 µM.
For the compound `CCn1ccc(S(N)(=O)=NC(=O)Nc2c3c(nc4c2CCC4(C)C)CCC3)n1` (single isomer, unassigned) [Compound 697a, (S) or (R)-N′-((3,3-dimethyl-1,2,3,5,6,7-hexahydrodicyclopenta [b,e]pyridin-8-yl)carbamoyl)-1-ethyl-1H-pyrazole-3-sulfonimidamide], under setting [3], the IC50 is 5 to 30 µM.
For `CC(C)(O)c1nc(CCO)c(S(N)(=O)=NC(=O)Nc2c3c(nc4c2CCC4)CCC3)s1` (single isomer, unassigned) [Compound 118a, (R) or (S)-N′-((1,2,3,5,6,7-hexahydrodicyclo-penta[b,e]pyridin-8-yl)carbamoyl)-4-(2-hydroxyethyl)-2-(2-hydroxypropan-2-yl)thiazole-5-sulfonimidamide], the IC50 under setting [2] was 0.2 to 1 µM.
Still for that read-out and setting: under `CC1CCc2c1nc1c(c2NC(=O)N=S(N)(=O)c2cnn(C(C)C)c2)CCC1` (centres unmarked) [Compound 171, 1-isopropyl-N′-((3-methyl-1,2,3,5,6,7-hexahydrodicyclopenta[b,e]pyridin-8-yl)carbamoyl)-1H-pyrazole-4-sulfonimidamide] stands 1 to 5 µM.
On to `CC1(C)CCc2c1nc1c(c2NC(=O)N=S(N)(=O)c2sc([C@](C)(O)CO)nc2CO)CCC1` (stereo partly drawn) [Example 600, 2-((R)-1,2-dihydroxypropan-2-yl)-N′-((3,3-dimethyl-1,2,3,5,6,7-hexahydrodicyclopenta[b,e]pyridin-8-yl)carbamoyl)-4-(hydroxymethyl)thiazole-5-sulfonimidamide], for which the concentration for half-maximal inhibition (IC50) under setting [4] was 0.2 to 1 µM.
For the compound `Cc1cn(C(C)C)nc1S(N)(=O)=NC(=O)Nc1c2c(nc3c1CCC3)CCC2` (single isomer, unassigned) [Compound 687a, (S) or (R)-N′-((1,2,3,5,6,7-hexahydrodicyclopenta [b,e]pyridin-8-yl)carbamoyl)-1-isopropyl-4-methyl-1H-pyrazole-3-sulfonimidamide], the IC50 under setting [5] was more than 30 µM.
For the compound `CCC1CCc2c1nc1c(c2NC(=O)N=S(N)(=O)c2sc(C(C)(C)O)cc2F)CCC1` (single isomer, unassigned) [Compound 671a, (S, S) or (S, R) or (R, S) or (R, R)-N′-((3-ethyl-1,2,3,5,6,7-hexahydrodicyclopenta [b,e]pyridin-8-yl)carbamoyl)-3-fluoro-5-(2-hydroxypropan-2-yl) thiophene-2-sulfonimidamide], under setting [5], the IC50 was more than 30 µM.
Turning to `Cc1c(C(F)(F)F)nc2c(c1NC(=O)N=S(N)(=O)c1cnc(C(C)(C)O)s1)CCC2` (centres unmarked) [Compound 661, 2-(2-Hydroxypropan-2-yl)-N′-((3-methyl-2-(trifluoromethyl)-6,7-dihydro-5H-cyclopenta[b]pyridin-4-yl)carbamoyl)thiazole-5-sulfonimidamide], the IC50 under setting [6] fell in the range of 1 to 5 µM.
`NS(=O)(=NC(=O)Nc1c2c(nc(C(F)(F)F)c1-c1ccccc1)CCC2)c1nn(C(F)F)cc1F` (single isomer, unassigned) [Example 766, (S) or (R)-1-(difluoromethyl)-4-fluoro-N′-((3-phenyl-2-(trifluoromethyl)-6,7-dihydro-5H-cyclopenta[b]pyridin-4-yl)carbamoyl)-1H-pyrazole-3-sulfonimidamide]: where the note is “Table B4, class symbols, read-out: hTHP-1 IC50”, the IC50 lay within 1 to 5 µM.
Regarding `CC(C)(O)c1sc(S(N)(=O)=NC(=O)Nc2c3c(nc4c2CCC4)CCC3)cc1Cl` (centres unmarked) [Compound 688, 4-Chloro-N′-((1,2,3,5,6,7-hexahydrodicyclopenta[b, e]pyridin-8-yl)carbamoyl)-5-(2-hydroxypropan-2-yl)thiophene-2-sulfonimidamide], under setting [6], the concentration for half-maximal inhibition (IC50) was 1 to 5 µM.
`Cc1c(C(F)(F)F)nc2c(c1NC(=O)N=S(N)(=O)c1ccn(C(F)F)n1)CCC2` (single isomer, unassigned) [Compound 621a, (S) or (R)-1-(Difluoromethyl)-N′-((3-methyl-2-(trifluoromethyl)-6,7-dihydro-5H-cyclopenta[b]pyridin-4-yl)carbamoyl)-1H-pyrazole-3-sulfonimidamide]: the IC50 under setting [3] lay within 5 to 30 µM.
For `Cc1sc(S(N)(=O)=NC(=O)Nc2c3c(nc4c2CCC4)CCC3)cc1C(C)(C)O` (single isomer, unassigned) [Compound 107b, (S) or (R)-N′-((1,2,3,5,6,7-hexahydrodicyclo-penta[b,e]pyridin-8-yl)carbamoyl)-4-(2-hydroxypropan-2-yl)-5-methylthiophene-2-sulfonimidamide], under setting [1], the IC50 lay within 5 to 30 µM.
With `CCCc1cc(NC(=O)N=S(N)(=O)c2cnc(C(C)(C)O)s2)c2c(n1)CCC2` (centres unmarked) [Compound 112, 2-(2-hydroxypropan-2-yl)-N′-((2-propyl-6,7-dihydro-5H-cyclopenta[b]pyridin-4-yl)carbamoyl)thiazole-5-sulfonimidamide], the IC50 under setting [7] is more than 30 µM.
For the compound `Cc1c(C(F)(F)F)nc2c(c1NC(=O)N=S(N)(=O)c1cnn3c1OCCC3)CCC2` (single isomer, unassigned) [Example 657, (R) or (S)-N′-((3-((3-2-(trifluoromethyl)-6,7-dihydro-5H-cyclopenta[b]pyridin-4-yl)carbamoyl)-6,7-dihydro-5H-pyrazolo[5,1-b][1,3]oxazine-3-sulfonimidamide], under setting [4], the half-inhibitory concentration (IC50) was 1 to 5 µM.
For the compound `CNS(=O)(=NC(=O)Nc1c2c(nc3c1CCC3)CCC2)c1ccc(CN(C)C)cc1` (single isomer, unassigned) [Compound 120b, (S) or (R)-4-((dimethylamino)methyl)-N′-((1,2,3,5,6,7-hexahydro-dicyclopenta[b,e]pryidin-8-yl)carbamoyl)-N-methylbenzene-sulfonimidamide], the half-maximal inhibitory concentration (IC50) (Table B1, numeric bounds, read-out: Average IC50 of compounds in hTHP-1 assay: hTHP-1 IC50) was more than 30 µM.
For `CC1(C)CCc2c1nc1c(c2NC(=O)N=S(N)(=O)c2sc(C(C)(O)CO)cc2F)CCC1` (single isomer, unassigned) [Compound 699a, (S, S) and (R, S) or (S, R) and (R, R)-5-(1,2-Dihydroxypropan-2-yl)-N′-((3,3-dimethyl-1,2,3,5,6,7-hexahydrodicyclopenta [b,e]pyridin-8-yl)carbamoyl)-3-fluorotliophene-2-sulfonimidamide], the IC50 under setting [5] was more than 30 µM.
On the same count and under the same terms, under `CC(C)(O)c1cc(S(N)(=O)=NC(=O)Nc2c3c(nc4c2CCC4(C)C)CCC3)nn1-c1ccccc1` (single isomer, unassigned) [Compound 663a, (S) or (R)-N′-((3,3-dimethyl-1,2,3,5,6,7-hexahydrodicyclopenta [b,e]pyridin-8-yl)carbamoyl)-5-(2-hydroxypropan-2-yl)-1-phenyl-1H-pyrazole-3-sulfonimidamide] stands more than 30 µM.
As for `CCn1ncc(F)c1S(N)(=O)=NC(=O)Nc1c(C)c(C(F)(F)F)nc2c1CCC2` (centres unmarked) [compound 754, 1-Ethyl-4-fluoro-N′-((3-methyl-2-(trifluoromethyl)-6,7-dihydro-5H-cyclopenta[b]pyridin-4-yl)carbamoyl)-1H-pyrazole-5-sulfonimidamide], the IC50 (Homo sapiens, THP-1, Table B4, class symbols, read-out: hTHP-1 IC50) is 1 to 5 µM.
Consider `CC(C)(O)c1ccc(S(N)(=O)=NC(=O)Nc2c3c(nc4c2CCC4)CCC3)cn1` (single isomer, unassigned) [Compound 156a, (S) or (R)-N′-((1,2,3,5,6,7-hexahydrodicyclo-penta[b,e]pyridin-8-yl)carbamoyl)-6-(2-hydroxypropan-2-yl)pyridine-3-sulfonimidamide], for which, under setting [7], the IC50 was more than 30 µM.
Consider `Cc1nc2c(c(NC(=O)N=S(N)(=O)c3cc(C(C)(C)O)cs3)c1C(F)(F)F)CCC2` (centres unmarked) [Example 566, 4-(2-Hydroxypropan-2-yl)-N′-((2-methyl-3-(trifluoromethyl)-6,7-dihydro-5H-cyclopenta[b]pyridin-4-yl)carbamoyl)thiophene-2-sulfonimidamide], for which, under setting [4], the IC50 lay within 0.2 to 1 µM.
On to `CC(C)(O)c1ccc(S(N)(=O)=NC(=O)Nc2c3c(nc4c2CCC4(C)C)CCC3)cn1` (single isomer, unassigned) [Compound 673b, (S) or (R)-N′-((3,3-dimethyl-1,2,3,5,6,7-hexahydrodicyclopenta [b,e]pyridin-8-yl)carbamoyl)-6-(2-hydroxypropan-2-yl)pyridine-3-sulfonimidamide], for which the half-maximal inhibitory concentration (IC50) under setting [5] is more than 30 µM.
